# Reference: patent US11731970B1, “Pyrrolo[2,3-b]quinoline compounds as antibacterial agents” (KING FAISAL UNIVERSITY, priority 2023, dated 2023)
# Like-named read-outs stand apart in the source and are kept apart here.
# Key:
# [1] = test system: Staphylococcus aureus ATCC 29213; assay: Antibacterial MIC, CLSI M07-A10 dilution; type: cell-based; details: ATCC29213
# [2] = test system: Staphylococcus aureus ATCC BAA-1556 (MERSA resistant); assay: Antibacterial MIC, CLSI M07-A10 dilution; type: cell-based; details: ATCCBAA1556
# [3] = test system: Staphylococcus epidermidis; assay: Antibacterial MIC, CLSI M07-A10 dilution; type: cell-based
# [4] = test system: Bacillus subtilis MTCC 441; assay: Antibacterial MIC, CLSI M07-A10 dilution; type: cell-based; details: MTCC441
# [5] = test system: Enterococcus faecium ATCC 35667; assay: Antibacterial MIC, CLSI M07-A10 dilution; type: cell-based; details: ATCC35667
# [6] = test system: Enterococcus faecium ATCC 51559 (VRE resistant); assay: Antibacterial MIC, CLSI M07-A10 dilution; type: cell-based
# [7] = test system: Klebsiella pneumonia MTCC 618; assay: Antibacterial MIC, CLSI M07-A10 dilution; type: cell-based; details: Klebsiella pneumoniae, MTCC618
# [8] = test system: Escherichia coli MTCC 443; assay: Antibacterial MIC, CLSI M07-A10 dilution; type: cell-based; details: MTCC443
# [9] = test system: Pseudomonas aeruginosa MTCC 741; assay: Antibacterial MIC, CLSI M07-A10 dilution; type: cell-based; details: MTCC741
# [10] = test system: Mycobacterium tuberculosis H37Rv strain; assay: Anti-tubercular alamar blue microplate MIC; type: cell-based; details: 168 h, M. tuberculosis H37Rv, seven days at 37° C., read-out: anti-mycobacterial activity (MIC)
# [11] = biological target: T1, DNA gyrase from E. coli (Escherichia coli, UniProt P0AES4+P0AES6); assay: E. coli DNA gyrase inhibition (Inspiralis assay); type: biochemical
# T1 construct: purchased Inspiralis
# T1 sequence (P0AES4 whole entry, one chain of several): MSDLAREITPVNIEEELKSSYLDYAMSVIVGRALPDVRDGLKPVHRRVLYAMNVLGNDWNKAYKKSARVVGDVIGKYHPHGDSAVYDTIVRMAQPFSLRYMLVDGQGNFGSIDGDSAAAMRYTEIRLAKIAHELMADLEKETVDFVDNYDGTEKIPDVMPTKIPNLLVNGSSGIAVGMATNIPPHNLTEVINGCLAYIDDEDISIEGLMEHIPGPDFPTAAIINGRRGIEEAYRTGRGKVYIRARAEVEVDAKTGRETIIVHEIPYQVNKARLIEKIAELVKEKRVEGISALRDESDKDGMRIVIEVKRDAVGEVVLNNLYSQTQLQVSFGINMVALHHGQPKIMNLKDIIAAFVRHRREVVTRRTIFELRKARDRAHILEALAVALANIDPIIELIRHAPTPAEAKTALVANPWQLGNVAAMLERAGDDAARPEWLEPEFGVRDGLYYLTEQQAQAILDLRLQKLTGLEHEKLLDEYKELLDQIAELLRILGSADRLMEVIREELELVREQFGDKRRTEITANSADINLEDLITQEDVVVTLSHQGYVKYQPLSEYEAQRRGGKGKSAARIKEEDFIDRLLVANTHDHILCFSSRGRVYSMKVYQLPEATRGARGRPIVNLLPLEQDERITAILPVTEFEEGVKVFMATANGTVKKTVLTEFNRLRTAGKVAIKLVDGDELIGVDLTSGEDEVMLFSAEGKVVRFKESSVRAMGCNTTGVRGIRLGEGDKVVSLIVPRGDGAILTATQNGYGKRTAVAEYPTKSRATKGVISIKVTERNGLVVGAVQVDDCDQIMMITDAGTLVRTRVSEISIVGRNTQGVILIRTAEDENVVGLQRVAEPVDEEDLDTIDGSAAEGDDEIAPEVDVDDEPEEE
# Experimental: Inhibitory potencies were investigated utilizing the Inspiralis assay on streptavidin-coated 96-well microtiter plates. First, the plates were rehydrated with buffer (20 mM Tris-HCl with pH 7.6, 0.01% w/v BSA, 0.05% v/v Tween 20, 137 mM NaCl) and the biotinylated oligonucleotide was then immobilized. After washing off the unbound oligonucleotide, the enzyme test was performed. The reaction volume of 30 μL in buffer (35 mM Tris×HCl with pH 7.5, 4 mM MgCl2, 24 mM KCl, 2 mM DTT, 1.8 mM spermidine, 1 mM ATP, 6.5% w/v glycerol, 0.1 mg/mL albumin) contained 1.5 U of DNA gyrase from E. coli, 0.75 μg of relaxed pNO1 plasmid, and 3 μL solution of the inhibitor in 10% DMSO and 0.008% Tween 20. Reaction solutions were incubated at 37° C. for 30 min. After that, the TF buffer (50 mM NaOAc with pH 5.0, 50 mM NaCl and 50 mM MgCl2) was added to terminate the enzymatic reaction. After additional incubation for 30 min at rt, during which biotinoligonucleotide-plasmid triplex was formed, the unbound plasmid was washed off using TF buffer and SybrGOLD in T10 buffer (10 mM Tris HCl with pH 8.0 and 1 mM EDTA) was added. The fluorescence was measured with a microplate reader (BioTek Synergy H4, excitation: 485 nm, emission: 535 nm). Initial screening was done at 100 or 10 μM concentration of inhibitors. […] GraphPad Prism software was used to calculate the IC50 values. […]
Compound,MIC [1],MIC [2],MIC ([3]; read-out: MIC),"MIC ([4]; Bacillus subtilis MTCC 441, read-out: MIC)","MIC ([5]; Enterococcus faecium ATCC 35667, read-out: MIC)","MIC ([6]; Enterococcus faecium ATCC 51559 (VRE resistant), read-out: MIC)","MIC ([7]; Klebsiella pneumonia MTCC 618, read-out: MIC)","MIC ([8]; Escherichia coli MTCC 443, read-out: MIC)","MIC ([9]; Pseudomonas aeruginosa MTCC 741, read-out: MIC)",MIC [10],IC50 [11],MIC [3],MIC ([4]; Bacillus subtilis),MIC ([5]; Enterococcus faecium),MIC ([6]; Enterococcus faecium),MIC [7],MIC ([8]; Escherichia coli),MIC ([9]; Pseudomonas aeruginosa)
"CCCCCN(C)Cc1cc(C(=O)O)ccc1-c1cc2cc3cc(F)cc(NC)c3nc2[nH]1 [Compound 6, 4-(6-fluoro-8-(methylamino)-1H-pyrrolo[2,3-b]quinolin-2-yl)-3-((methyl(pentyl)amino)methyl)benzoic acid]",0.75 µg/mL,0.75 µg/mL,1 µg/mL,0.5 µg/mL,0.75 µg/mL,1 µg/mL,1 µg/mL,4 µg/mL,0.75 µg/mL,4 µg/mL,25 nM,–,–,–,–,–,–,–
"CN[C@H](CC(C)C)C(=O)N[C@H]1C(=O)N[C@@H](CC(N)=O)C(=O)N[C@H]2C(=O)N[C@H]3C(=O)N[C@H](C(=O)N[C@H](C(=O)O)c4cc(O)cc(O)c4-c4cc3ccc4O)[C@H](O)c3ccc(c(Cl)c3)Oc3cc2cc(c3O[C@@H]2O[C@H](CO)[C@@H](O)[C@H](O)[C@H]2O[C@H]2C[C@](C)(N)[C@H](O)[C@H](C)O2)Oc2ccc(cc2Cl)[C@H]1O [Vancomycin, reference compound]",–,–,–,–,–,–,–,–,–,–,–,1 µg/mL,0.5 µg/mL,0.5 µg/mL,> 128 µg/mL,> 128 µg/mL,> 128 µg/mL,> 128 µg/mL
